Source: PubChem BioAssay AID2060624 (Molecular Pharmacology Branch, DTP, NCI, 2025)

Tested on: 217524-143-R1-J4-PDC spheroids with HUVEC/MSC, viability
Experiment: Anticancer human tumor 217524-143-R1-J4-PDC patient-derived pancreatic carcinoma cell line growth inhibition [CLK]
Settings: for IC50: curve of first compound; for viability, T/C: stronger effect = lower value
Summary of the method: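 Patient-derived tumor cells grown as complex spheroids with HUVEC endothelial cells and mesenchymal stem cells, treated with drug combinations. Concentrations descend in half-log steps from near clinical Cmax, or from 10 microM if Cmax unknown.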

[1] = second compound 0.0316 µM, first compound 0.0316 µM
[2] = second compound 0.0316 µM, first compound 0.1 µM
[3] = second compound 0.1 µM, first compound 0.0316 µM
[4] = second compound 0.1 µM, first compound 0.1 µM
[5] = second compound 0.316 µM, first compound 0.0316 µM
[6] = second compound 0.316 µM, first compound 0.1 µM
[7] = second compound 1 µM, first compound 0.0316 µM
[8] = second compound 1 µM, first compound 0.1 µM
[9] = second compound 3.16 µM, first compound 0.0316 µM
[10] = second compound 3.16 µM, first compound 0.1 µM
[11] = second compound 10 µM, first compound 0.0316 µM
[12] = second compound 10 µM, first compound 0.1 µM
[13] = second compound 0.0316 µM, first compound 0.316 µM
[14] = second compound 0.0316 µM, first compound 1 µM
[15] = second compound 0.0316 µM, first compound 3.16 µM
[16] = second compound 0.0316 µM, first compound 10 µM
[17] = second compound 0.1 µM, first compound 0.316 µM
[18] = second compound 0.1 µM, first compound 1 µM
[19] = second compound 0.1 µM, first compound 3.16 µM
[20] = second compound 0.1 µM, first compound 10 µM
[21] = second compound 0.316 µM, first compound 0.316 µM
[22] = second compound 0.316 µM, first compound 1 µM
[23] = second compound 0.316 µM, first compound 3.16 µM
[24] = second compound 0.316 µM, first compound 10 µM
[25] = second compound 1 µM, first compound 0.316 µM
[26] = second compound 1 µM, first compound 1 µM
[27] = second compound 1 µM, first compound 3.16 µM
[28] = second compound 1 µM, first compound 10 µM
[29] = second compound 3.16 µM, first compound 0.316 µM
[30] = second compound 3.16 µM, first compound 1 µM
[31] = second compound 3.16 µM, first compound 3.16 µM
[32] = second compound 3.16 µM, first compound 10 µM
[33] = second compound 10 µM, first compound 0.316 µM
[34] = second compound 10 µM, first compound 1 µM
[35] = second compound 10 µM, first compound 3.16 µM
[36] = second compound 10 µM, first compound 10 µM
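Further: spheroids exposed to agents for seven days before reading.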
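Wherever viability, T/C is given: 100% = DMSO vehicle control viability.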

With `Cn1ncnc1[C@H]1c2n[nH]c(=O)c3cc(F)cc(c23)N[C@@H]1c1ccc(F)cc1` + CNC(=O)c1ccc(Nc2nc(OC3CCCC3)c3c(-c4ccc5nc(C)oc5c4)c[nH]c3n2)c(OC)c1 the IC50 (second compound 0.0316 µM) was > 100 nM, the IC50 (second compound 0.1 µM) was < 0.316 nM and the IC50 (second compound 0.316 µM) was < 0.316 nM. The IC50 (second compound 1 µM) was < 0.316 nM, the IC50 (second compound 3.16 µM) was < 0.316 nM and the IC50 (second compound 10 µM) was < 0.316 nM. For the same compound, the viability, T/C (second compound 0.0316 µM, first compound 0.000316 µM) was 101%, the viability, T/C (second compound 0.0316 µM, first compound 0.001 µM) was 68.8% and the viability, T/C (second compound 0.0316 µM, first compound 0.00316 µM) was 86.1%. The viability, T/C (second compound 0.0316 µM, first compound 0.01 µM) was 85%, the viability, T/C [1] was 83.4% and the viability, T/C [2] was 75.5%. It also gave a viability, T/C (second compound 0.1 µM, first compound 0.000316 µM) of 43.6%, a viability, T/C (second compound 0.1 µM, first compound 0.001 µM) of 44.8% and a viability, T/C (second compound 0.1 µM, first compound 0.00316 µM) of 41.6%. It also gave a viability, T/C (second compound 0.1 µM, first compound 0.01 µM) of 37.5%, a viability, T/C [3] of 38.6% and a viability, T/C [4] of 31.4%. The viability, T/C (second compound 0.316 µM, first compound 0.000316 µM) was 34.5%, the viability, T/C (second compound 0.316 µM, first compound 0.001 µM) was 42.8% and the viability, T/C (second compound 0.316 µM, first compound 0.00316 µM) was 34.1%. It also gave a viability, T/C (second compound 0.316 µM, first compound 0.01 µM) of 39%, a viability, T/C [5] of 39.9% and a viability, T/C [6] of 37.3%. For the same compound, the viability, T/C (second compound 1 µM, first compound 0.000316 µM) was 23.3%, the viability, T/C (second compound 1 µM, first compound 0.001 µM) was 32.8% and the viability, T/C (second compound 1 µM, first compound 0.00316 µM) was 30.6%. For the same compound, the viability, T/C (second compound 1 µM, first compound 0.01 µM) was 23.3%, the viability, T/C [7] was 21.3% and the viability, T/C [8] was 25.8%. The viability, T/C (second compound 3.16 µM, first compound 0.000316 µM) was 28.6%, the viability, T/C (second compound 3.16 µM, first compound 0.001 µM) was 23.7% and the viability, T/C (second compound 3.16 µM, first compound 0.00316 µM) was 27.2%. The viability, T/C (second compound 3.16 µM, first compound 0.01 µM) was 23.2%, the viability, T/C [9] was 24.4% and the viability, T/C [10] was 23.6%. For the same compound, the viability, T/C (second compound 10 µM, first compound 0.000316 µM) was 29%, the viability, T/C (second compound 10 µM, first compound 0.001 µM) was 25.5% and the viability, T/C (second compound 10 µM, first compound 0.00316 µM) was 24.7%. The viability, T/C (second compound 10 µM, first compound 0.01 µM) was 24.6%, the viability, T/C [11] was 24.3% and the viability, T/C [12] was 21.2%.
For `Nc1ccn(C2OC(CO)C(O)C2(F)F)c(=O)n1` (stereo unspecified) + CNC(=O)c1ccc(Nc2nc(OC3CCCC3)c3c(-c4ccc5nc(C)oc5c4)c[nH]c3n2)c(OC)c1, the IC50 (second compound 0.0316 µM) was 47 nM, the IC50 (second compound 0.1 µM) was < 31.6 nM and the IC50 (second compound 0.316 µM) was < 31.6 nM. The IC50 (second compound 1 µM) was < 31.6 nM, the IC50 (second compound 3.16 µM) was < 31.6 nM and the IC50 (second compound 10 µM) was < 31.6 nM. It also gave a viability, T/C [1] of 60.1%, a viability, T/C [2] of 31% and a viability, T/C [13] of 25.2%. It also gave a viability, T/C [14] of 29.9%, a viability, T/C [15] of 30.4% and a viability, T/C [16] of 25.1%. For the same compound, the viability, T/C [3] was 35.3%, the viability, T/C [4] was 28.8% and the viability, T/C [17] was 20.8%. The viability, T/C [18] was 33.2%, the viability, T/C [19] was 29% and the viability, T/C [20] was 28.1%. The viability, T/C [5] was 28.9%, the viability, T/C [6] was 25.1% and the viability, T/C [21] was 18.5%. For the same compound, the viability, T/C [22] was 23.5%, the viability, T/C [23] was 20.6% and the viability, T/C [24] was 21.3%. For the same compound, the viability, T/C [7] was 24.8%, the viability, T/C [8] was 17.1% and the viability, T/C [25] was 13.6%. It also gave a viability, T/C [26] of 19.9%, a viability, T/C [27] of 13.3% and a viability, T/C [28] of 14.5%. It also gave a viability, T/C [9] of 21.8%, a viability, T/C [10] of 18.1% and a viability, T/C [29] of 11.2%. The viability, T/C [30] was 13.5%, the viability, T/C [31] was 14.3% and the viability, T/C [32] was 11.6%. The viability, T/C [11] was 23.4%, the viability, T/C [12] was 18.6% and the viability, T/C [33] was 12.8%. For the same compound, the viability, T/C [34] was 10.8%, the viability, T/C [35] was 13.8% and the viability, T/C [36] was 11.8%.
`O=c1[nH]cc(F)c(=O)[nH]1` + CNC(=O)c1ccc(Nc2nc(OC3CCCC3)c3c(-c4ccc5nc(C)oc5c4)c[nH]c3n2)c(OC)c1 was tested, and the IC50 (second compound 0.0316 µM) was 768 nM, the IC50 (second compound 0.1 µM) was < 31.6 nM and the IC50 (second compound 0.316 µM) was < 31.6 nM. For the same compound, the IC50 (second compound 1 µM) was < 31.6 nM, the IC50 (second compound 3.16 µM) was < 31.6 nM and the IC50 (second compound 10 µM) was < 31.6 nM. It also gave a viability, T/C [1] of 79.9%, a viability, T/C [2] of 86.3% and a viability, T/C [13] of 61.6%. It also gave a viability, T/C [14] of 48.3%, a viability, T/C [15] of 30.7% and a viability, T/C [16] of 29.1%. For the same compound, the viability, T/C [3] was 40.4%, the viability, T/C [4] was 37.5% and the viability, T/C [17] was 39.4%. For the same compound, the viability, T/C [18] was 35.6%, the viability, T/C [19] was 30% and the viability, T/C [20] was 26.7%. The viability, T/C [5] was 32.3%, the viability, T/C [6] was 36.7% and the viability, T/C [21] was 31.5%. The viability, T/C [22] was 29.9%, the viability, T/C [23] was 29.1% and the viability, T/C [24] was 21.5%. It also gave a viability, T/C [7] of 29.6%, a viability, T/C [8] of 26.7% and a viability, T/C [25] of 24.8%. It also gave a viability, T/C [26] of 21.9%, a viability, T/C [27] of 20.2% and a viability, T/C [28] of 13.9%. For the same compound, the viability, T/C [9] was 27%, the viability, T/C [10] was 30.4% and the viability, T/C [29] was 21.7%. The viability, T/C [30] was 23.4%, the viability, T/C [31] was 18.5% and the viability, T/C [32] was 13.4%. For the same compound, the viability, T/C [11] was 23.2%, the viability, T/C [12] was 27.4% and the viability, T/C [33] was 22.4%. It also gave a viability, T/C [34] of 22.6%, a viability, T/C [35] of 17.9% and a viability, T/C [36] of 13.1%.
